One assay relates to HIV-1HXB2 (gp41). The note with it: 1HXB2 (gp41, 48 h).
Assay [1] deals with fluorescein-labeled 5-Helix (Human immunodeficiency virus type 1 group M subtype B, UniProt P04578, C598G/DEL582-596/DEL601-623/N624G). In kind it is binding, HIV-1HXB2.
Another assay concerns HIV-1HXB2. The format is cell-based. The following applies: low (HOS-CD4-CCR5) versus high (HOS-CD4-CXCR4) CXCR4, HIV-1HXB2.
For a further assay, the system named is HIV-1. The note with it: compared with wild type C37; ref KMK and MJR, manuscript in preparation; cited from earlier work.
In assay [2] the test system is EnvG547D/I548T and EnvV549E. In kind it is cell-based. The following applies: versus wild type Env.

A word on the IC50: it is the concentration that inhibits the measured activity by half. The low end stands for inhibition by little substance, the high end for a need for much substance.

Ends that are not written are not given here.

The sequence “GGHTTWMEWDREINNYISLIHSLIEESQNQQEKNEQELLGHHHHHH [T639I (NYI)]” showed an IC50 with HIV-1HXB2 (gp41) of 1.7 ± 0.1 nM.

In turn, “GGHTTWMEWDREINKYTSLIHSLIEESQNQQEKNEQELLGHHHHHH [N637K (KYT)]” displayed an IC50 in the assay on HIV-1HXB2 (gp41) of 1.65 ± 0.05 nM.

“GGHTTWMEWDREINNYTSLIHSLIEESQNQQEKNEQALLGHHHHHH [Variant E659A]” returned an IC50 in the assay on HIV-1HXB2 (gp41) of 1.2 ± 0.13 nM.

In the assay on HIV-1HXB2 (gp41), “GGHTTWMEWDREINNYTSLIHSLIEESQNDQEKNEQELLGHHHHHH [Variant Q652D]” yielded an IC50 of 53 ± 0.98 nM.

The sequence “GGHTTDMEWDREANNYTSLIHSLIEESQNQQEKNEQELLGHHHHHH [W628D/I635A]” yielded an IC50 in the assay on HIV-1HXB2 (gp41) of 97 ± 8.4 nM.

“GGHTTWMEWDREINNYTSLIHSLIEESQNQQEKDEQELLGHHHHHH [Variant N656D]”: the IC50 in the assay on HIV-1HXB2 (gp41) was 100 ± 8.9 nM.

In turn, “GGHTTWMEWDREINNYTSLDHSLIEESQNQQEKNEQELLGHHHHHH [Variant I642D]” came in with an IC50 with HIV-1HXB2 (gp41) of 13000 ± 2100 nM.

“GGHTTWMEWDREDNNYTSLIHSLIEESQNQQEKNEQELLGHHHHHH [Variant I635D]” yielded an IC50 with HIV-1HXB2 (gp41) of 3100 ± 350 nM.

For the sequence “GGHTTWMEWDREINNYTSLIHSDIEESQNQQEKNEQELLGHHHHHH [Variant L645D]”, 630 ± 120 nM corresponded to half-maximal inhibition in the assay on HIV-1HXB2 (gp41) (IC50).

“GGHTTWMEWDREINNYTSLIHSLIEESQNQQEKAEQELLGHHHHHH [Variant N656A]” gave an IC50 in the assay on HIV-1HXB2 (gp41) of 30 ± 4.2 nM.

As for “GGHTTWMEWDREINKYISLIHSLIEESQNQQEKNEQELLGHHHHHH [N637K/T639I (KYI)]”, in assay [1], the kon is 2.4±0.1 x10^7 M-1s-1. The “τoff (time constant for dissociation)” value in assay [1] (C37 variants, reciprocal of koff) was 11000 min. The sequence further yielded an IC50 with HIV-1HXB2 (gp41) of 0.96 ± 0.1 nM. Besides, in the assay on HIV-1HXB2, the “increase in potency on lowering CXCR4 levels” value turned out to be 3.5 fold. Besides, the resistance development result in the assay with HIV-1 was “takes much longer to achieve and requires more escape mutations than resistance to wild type C37”. Besides, the “impact of G547D/I548T and V549E substitutions on potency” value in assay [2] is “minimal impact”.

In the assay on HIV-1HXB2 (gp41), “GGHTTWMEWDREINNYTSLAHSLIEESQNQQEKNEQELLGHHHHHH [Variant I642A]” registered an IC50 of 7 ± 1.5 nM.

“GGHTTWMEWDREINNYTSLIHSLIEESQNAQEKNEQELLGHHHHHH [Variant Q652A]” displayed an IC50 in the assay on HIV-1HXB2 (gp41) of 3.5 ± 0.81 nM.

“GGHTTWMEWDREINNYTSLIHSAIEESQNQQEKNEQELLGHHHHHH [Variant L645A]” yielded an IC50 with HIV-1HXB2 (gp41) of 3.9 ± 0.7 nM.

“GGHTTWMEWDREINNYTSLIHSLIEEAQNQQEKNEQELLGHHHHHH [Variant S649A]” registered an IC50 with HIV-1HXB2 (gp41) of 1.6 ± 0.41 nM.

In turn, “GGHTTDMEWDREINNYTSLAHSLIEESQNQQEKNEQELLGHHHHHH [W628D/I642A]” yielded an IC50 in the assay with HIV-1HXB2 (gp41) of 65 ± 9.8 nM.

“GGHTTWMEWDREINNYTSLIHSLIEEDQNQQEKNEQELLGHHHHHH [Variant S649D]”: in the assay on HIV-1HXB2 (gp41), the IC50 is 2300 ± 170 nM.

Take “GGHTTWMEWDREANNYTSLIHSLIEESQNQQEKNEQELLGHHHHHH [Variant I635A]”: the IC50 with HIV-1HXB2 (gp41) amounted to 5.7 ± 1.6 nM.

The values above are taken from publication PMC2776349, “Asymmetric Deactivation of HIV-1 gp41 following Fusion Inhibitor Binding” (PLoS Pathogens, 2009).
